Experimental data taken from patent publication US4196205A, “3-Acetoxymethyl-7-(iminoacetamido)-cephalosporanic acid derivatives” (priority 1976, dated 1980).
Read-outs that look alike come from different tables or passages of the source.

Tests used:
[1] = system: Bacillus subtilis ATCC 6 633; assay: MIC, dilution in liquid medium; assay type: cell-based
Protocol: (§1) The method used was a dilution of a liquid medium where a series of tubes received the same quantity of a sterile nutritive media and increasing doses of the test compounds were placed therein. Then each tube was seeded with a bacterial strain and was incubated for 24 to 48 hours at 37° C. in an oven. The increasing inhibition was determined by transillumination to determine the minimum inhibiting concentration (MIC in […]) and the results are reported in the following Tables.

Enterobacter cloacae 681 = assay: MIC, dilution in liquid medium; assay type: cell-based
Protocol: as §1

Escherichia Coli 25 575 = assay: MIC, dilution in liquid medium; assay type: cell-based
Protocol: as §1

Escherichia Coli E6 = assay: MIC, dilution in liquid medium; assay type: cell-based
Protocol: as §1

[2] = system: Escherichia Coli Exp. TO26 B6; assay: MIC, dilution in liquid medium; assay type: cell-based; conditions: Escherichia coli, 48 h
Protocol: as §1

Escherichia Coli Galle = assay: MIC, dilution in liquid medium; assay type: cell-based
Protocol: as §1

[3] = system: Escherichia Coli Resistant Gentamicine, Tobramycine R 55 123 D; assay: MIC, dilution in liquid medium; assay type: cell-based
Protocol: as §1

[4] = system: Escherichia Coli Resistant Tetracycline ATCC 11 303 = UC 1261; assay: MIC, dilution in liquid medium; assay type: cell-based; conditions: Escherichia coli, read-out: M.I.C.
Protocol: as §1

[5] = system: Escherichia Coli Sensible Tetracycline ATCC 9 637 = 1020; assay: MIC, dilution in liquid medium; assay type: cell-based
Protocol: as §1

[6] = system: Escherichia Coli T 96 875; assay: MIC, dilution in liquid medium; assay type: cell-based
Protocol: as §1

[7] = system: Klebsiella pneumoniae 2 536 Resistant Gentamicine; assay: MIC, dilution in liquid medium; assay type: cell-based
Protocol: as §1

[8] = system: Klebsiella pneumoniae Exp. 52 145; assay: MIC, dilution in liquid medium; assay type: cell-based; conditions: Klebsiella pneumoniae, read-out: M.I.C.
Protocol: as §1

[9] = system: Proteus mirabilis (indol-) A 235; assay: MIC, dilution in liquid medium; assay type: cell-based; conditions: Proteus mirabilis, read-out: M.I.C.
Protocol: as §1

[10] = system: Proteus vulgaris (indol+) A 232; assay: MIC, dilution in liquid medium; assay type: cell-based
Protocol: as §1

Providencia Du 48 = assay: MIC, dilution in liquid medium; assay type: cell-based
Protocol: as §1

[11] = system: Pseudomonas 3 935 Exp. SG; assay: MIC, dilution in liquid medium; assay type: cell-based; conditions: Pseudomonas, 3935EXP.SG
Protocol: as §1

Pseudomonas 8951 RGT = assay: MIC, dilution in liquid medium; assay type: cell-based
Protocol: as §1

[12] = system: Salmonella typhimurium 420; assay: MIC, dilution in liquid medium; assay type: cell-based; conditions: Salmonella enterica, TYPHIMURIUM, read-out: M.I.C.
Protocol: as §1

[13] = system: Serratia Resistant Gentamicine 2 532; assay: MIC, dilution in liquid medium; assay type: cell-based; conditions: read-out: M.I.C.
Protocol: as §1

[14] = system: Staphylococcus aureus ATCC 5 638 Pen-Sensible = UC 1061; assay: MIC, dilution in liquid medium; assay type: cell-based; conditions: read-out: M.I.C.
Protocol: as §1

[15] = system: Staphylococcus aureus UC 1 128 Pen-Resistant; assay: MIC, dilution in liquid medium; assay type: cell-based; conditions: Staphylococcus aureus
Protocol: as §1

[16] = system: Staphylococcus aureus exp. n° 54 146; assay: MIC, dilution in liquid medium; assay type: cell-based; conditions: Staphylococcus aureus
Protocol: as §1

Straphylococcus Smith = assay: MIC, dilution in liquid medium; assay type: cell-based
Protocol: as §1

[17] = system: Streptococcus faecalis 5 432; assay: MIC, dilution in liquid medium; assay type: cell-based
Protocol: as §1

[18] = system: Streptococcus faecalis 99 F 74; assay: MIC, dilution in liquid medium; assay type: cell-based; conditions: Enterococcus faecalis
Protocol: as §1

[19] = system: Streptococcus pyogenes A 561; assay: MIC, dilution in liquid medium; assay type: cell-based
Protocol: as §1

[20] = system: Escherichia Coli (T) O26 B6; assay: Experimental infection with Escherichia Coli (T) O26 B6 in mice (21.5 g, culture diluted 1/6); assay type: in vivo, male mice
Protocol: (§2) The product of Example 4 was studied for its activity against an experimental infection of Escherichia Coli in groups of 10 male mice weighing about 21.5 g. The mice recieved an intraperitoneal injection of 0.5 ml of a 24 hour old culture in a nutritive media of Escherichia Coli (T) O26 B6 of the Pasteur Institute diluted 1/6 with distilled water. The test product was administered subcutaneously or orally 1 hour and 5 and 24 hours after the infection and the number of dead was determined after 8 days.

[21] = system: Escherichia Coli (T) O26 B6; assay: Experimental infection with Escherichia Coli (T) O26 B6 in mice, repeated (22.5 g, culture diluted 1/5.5); assay type: in vivo
Protocol: as §2
The procedure was repeated with mice weighing about 22.5 g with an intraperitoneal injection of a 24 hour old culture of Escherichia Coli (T) O26 B6 diluted 1/5.5 with distilled water with the product of Example 4.

CO/N=C(\C(=O)N[C@@H]1C(=O)N2C(C(=O)O)=C(COC(C)=O)CS[C@H]12)c1csc(N)n1 [Example 4, 3-acetoxymethyl-7-[2-(2-amino-4-thiazolyl)-2-methoxyiminoacetamido]-ceph-3-eme-4-carboxylic acid]
> 40 µg/mL: MIC (Pseudomonas 8951 RGT; 48 h)
0.05 µg/mL: MIC (Escherichia Coli 25 575; COLI25575, 24 h) | MIC (Escherichia Coli 25 575; COLI25575, 48 h) | MIC (Escherichia Coli E6; COLIE6, 24 h) | MIC (Escherichia Coli E6; COLIE6, 48 h) | MIC ([6]; COLIT96875, 24 h) | MIC ([6]; COLIT96875, 48 h)
40 µg/mL: MIC (Enterobacter cloacae 681; Enterobacter cloacae, 681, 24 h) | MIC (Enterobacter cloacae 681; Enterobacter cloacae, 681, 48 h) | M.I.C. ([10]; 48 H) | MIC ([11]; 48 h) | MIC (Pseudomonas 8951 RGT; 24 h)
0,05 μg/ml: M.I.C. ([19]; 48 H)
2: MORTALITY AFTER 32H ([21]; 0,1 mg OS) | MORTALITY AFTER 32H ([21]; 0,05 mg OS) | MORTALITY AFTER 22H 30 ([21]; 0,015 mg S.C.) | MORTALITY AFTER 23H 50 ([21]; 0,015 mg S.C.) | MORTALITY AFTER 46H 30 ([21]; 0,015 mg S.C.) | MORTALITY AFTER 4j ([21]; 0,025 mg S.C.)
1 µg/mL: MIC ([1]; Bacillus subtilis, ATCC6, 48 h, 48 H, read-out: M.I.C.) | MIC ([13]; 24 h) | MIC ([13]; 48 h) | MIC ([14]; 24 h) | MIC ([14]; 48 h) | MIC (Straphylococcus Smith; 24 h) | MIC (Straphylococcus Smith; 48 h)
9/10: mice alive after 8 days ([20]; 0.1 mg orally)
1: deaths after 28.5 h (out of 10 mice) ([20]; 0.1 mg orally) | MORTALITY AFTER 9H 35 ([21]; 0,1 mg OS) | MORTALITY AFTER 24H ([21]; 0,1 mg OS) | MORTALITY AFTER 70H ([21]; 0,1 mg OS) | MORTALITY AFTER 24H ([21]; 0,05 mg OS) | MORTALITY AFTER 31H ([21]; 0,05 mg OS) | MORTALITY AFTER 25H 50 ([21]; 0,025 mg S.C.) | MORTALITY AFTER 26H 30 ([21]; 0,025 mg S.C.)
2 µg/mL: M.I.C. ([10]; 24 H) | MIC ([15]; UC1, 24 h, 24 H) | MIC ([15]; UC1, 48 h, 48 H) | MIC ([17]; Enterococcus faecalis, 5432, 24 h, 24 H) | MIC ([17]; Enterococcus faecalis, 5432, 48 h, 48 H) | MIC ([18]; 99F74, 24 h, 24 H)
0.02 µg/mL: MIC ([4]; 24 h) | MIC ([4]; 48 h) | MIC ([8]; EXP.52145, 24 h, 24 H) | MIC ([8]; EXP.52145, 48 h, 48 H) | MIC ([9]; 24 h) | MIC ([9]; 48 h) | MIC ([19]; Streptococcus pyogenes, A561, 24 h, 24 H, read-out: M.I.C.)
4: MORTALITY AFTER 22H 30 ([21]; 0,05 mg OS)
0.1 µg/mL: MIC [2] | MIC (Escherichia Coli Galle; 24 h)
2/10: Mice alive on the 8th Day ([21]; 0,05 mg OS)
0.2 µg/mL: MIC (Escherichia Coli Galle; 48 h) | MIC ([5]; Escherichia coli, ATCC9, 24 h, 24 H, read-out: M.I.C.) | MIC ([12]; 24 h) | MIC ([12]; 48 h)
3 µg/mL: MIC ([16]; 24 h, read-out: M.I.C.) | MIC ([16]; 48 h) | MIC ([18]; 99F74, 48 h, 48 H)
5 µg/mL: M.I.C. (Providencia Du 48; 24 H) | M.I.C. (Providencia Du 48; 48 H)
0,2 μg/ml: M.I.C. ([1]; 24 H) | M.I.C. ([5]; 48 H)
0,6-1 μg/ml: M.I.C. ([3]; 48 H)
6/10: Mice alive on the 8th Day ([21]; 0,025 mg S.C.)
5/10: Mice alive on the 8th Day ([21]; 0,1 mg OS)
0,6 μg/ml: M.I.C. ([3]; 24 H) | M.I.C. ([7]; 24 H) | M.I.C. ([7]; 48 H)
10/10: mice alive after 8 days ([20]; 0.05 mg subcutaneously) | mice alive after 8 days ([20]; 0.1 mg subcutaneously (first line)) | mice alive after 8 days ([20]; 0.1 mg subcutaneously (second line)) | mice alive after 8 days ([20]; 0.25 mg orally) | mice alive after 8 days ([20]; 0.25 mg subcutaneously) | mice alive after 8 days ([20]; 0.5 mg orally) | Mice alive on the 8th Day ([21]; 0,05 mg S.C.) | Mice alive on the 8th Day ([21]; 0,25 mg OS)
4/10: Mice alive on the 8th Day ([21]; 0,015 mg S.C.)
10 µg/mL: MIC ([11]; 24 h, read-out: M.I.C.)
